Test in all cases: Qualitative dye staining on agarose pads (EVOS M7000)
Holding throughout (assay type): cell-based
Set-up in all cases: key to Relative fluorescent intensity: Very high: If the cells looked twice as big in the fluorescent channel, it was marked as having “very high” relative fluorescent intensity; High: if the cells looked bigger in the fluorescent channel, it was marked as having “high” relative fluorescent intensity; Medium: If the cells looked almost the same size in the fluorescent channel and the bright field, it was marked as having “medium” relative fluorescent intensity; Low: If the cells looked smaller in the fluorescent channel as compared to the brightfield but still the whole cell was visible, it was marked as having “low” relative fluorescent intensity; Negligible: If only a few traces of a cell was visible in the fluorescent channel, it was marked as having “negligible” relative fluorescent intensity

One assay has as its system Staphylococcus epidermis. As to conditions: DiSC3(5) 3 μM, SYBR Green I 10×, SYTO 13 3 μM, FM4-64 15 μM. The procedure:
(§1) An overnight culture was prepared by inoculating a bacterial colony in approximately 5 ml of Urine and incubating the culture in an orbital shaker at 37° C.
(§2) The following media and materials were utilised: Cation-adjusted Mueller Hinton broth (MHB); Phosphate Buffered Saline (PBS); Membrane staining dye—FM4-64 (1.5 mM); Live cell staining dye—DiSC3(5) (1 mM); DNA staining dye—SYBR Green (1000×); DNA staining dye—SYTO 13 (0.5 mM); Ultrapure Agarose; Parafilm; Glass slides and coverslips; Scalpel; and EVOS M7000 fluorescent microscope.
(§3) A pre-cut parafilm or a coverslip was used as a guide and 22 mm×22 mm squares cut from parafilm. A square was cut out of the centre of the parafilm (approximately 10 mm×10 mm). The centre of the cut-out was discarded. Two parafilm gaskets were placed onto a cleaned glass slide. The glass slide was then placed on a dry bath set to 56° C. so that the parafilm adhered to the glass slide. The glass slide was then kept on the dry bath. Using a microwave, ultrapure agarose was dissolved in PBS at a concentration of 1.2%. The agarose solution was kept on a dry bath set at 56° C. 60 μl of the agarose solution was pipetted in the centre of the parafilm gaskets. A coverslip was then placed over the gaskets without applying pressure on the coverslip. The slide was then placed on a cool surface and left to solidify for 1-2 minutes. The coverslips were then gently lifted off the agarose pads.
(§4) In a first Eppendorf, 15 μl of FM4-64 and 6 μl of SYTO 13 was added and in a second Eppendorf 10 μl of SYBR Green and 3 μl of DiSC3(5) was added. Depending on the bacterial growth in urine, an appropriate concentration of the bacterial culture was placed in the two Eppendorfs (final bacterial concentration 10^6 CFU/ml). MHB was added so as to achieve a final volume of 1 ml. Final concentrations of the dyes in the sample was as follows: DiSC3(5): 3 μM; SYBR Green I: 10× (originally supplied as 10,000×); SYTO 13: 3 μM; and FM4-64: 15 μM
(§5) 4 μl of the contents of each Eppendorf were deposited on one agarose pad and the cells distributed across the agar surface by tilting the slide. The slide was left to dry for approximately 1 minute. A coverslip was then placed on top of the agarose pad. The slide was placed inside the microscope and incubated at 37° C. for 10 minutes. Using different light filters for each dye, an image of each pad at 40× magnification on an EVOS M7000 fluorescent microscope was captured. Eight images for each agarose pad was recorded (i.e. 8 each for brightfield and 2 fluorescent channels). For each agarose pad, 24 images were recorded. This corresponded to 48 images in total for each bacterial strain (2 agarose pads per strain). Table A below was used to take the images using the correct fluorescent channel and intensity (for imagining on any other instrument, the LED intensity will need to be normalised against the EVOS M7000).
(§6) To qualitatively calculate the relative fluorescent intensities, cell size was compared between brightfield and the fluorescent channel for a given fluorescent dye. If the cells are very fluorescent, they will appear bigger in the fluorescent channel as compared to the bright field. For our qualitative measurements, if the cells looked bigger in the fluorescent channel, it was marked as having “high” relative fluorescent intensity. If the cells looked twice as big in the fluorescent channel, it was marked as having “very high” relative fluorescent intensity. If the cells looked almost the same size in the fluorescent channel and the bright field, it was marked as having “medium” relative fluorescent intensity. If the cells looked smaller in the fluorescent channel as compared to the brightfield but still the whole cell was visible, it was marked as having “low” relative fluorescent intensity. If only a few traces of a cell was visible in the fluorescent channel, it was marked as having “negligible” relative fluorescent intensity.

A further assay concerns Proteus. Conditions: Table 6 thresholds, DiSC3(5) 3 μM, SYBR Green I 10×, SYTO 13 3 μM, FM4-64 15 μM. As to the method:
as §1, §2, §3, §4, §5, §6

The subject of another assay is Klebsiella oxytoca. As to conditions: DiSC3(5) 3 μM, SYBR Green I 10×, SYTO 13 3 μM, FM4-64 15 μM. As to the method:
as §1, §2, §3, §4, §5, §6

[1] abbreviates: Table 6 thresholds, Staphylococcus epidermis.
[2] abbreviates: Table 8 sample Staphylococcus epidermis (044).
[3] abbreviates: Table 8 sample Staphylococcus epidermis (045).
The mark [4] stands for this setting: Table 8 sample Staphylococcus epidermis (046).
Setting [5] is: Table 8 sample Klebsiella oxytoca (091).
[6] abbreviates: Table 8 sample Klebsiella oxytoca (092).
The mark [7] stands for this setting: Table 8 sample Klebsiella oxytoca (093).

The results in this text go back to patent US20250052744A1, “Dyes and Uses Thereof” (The University of Liverpool, priority 2021, published 2025).

SMILES strings stand for the structures.

Regarding `CCCN1C(=CC=CC=Cc2sc3ccccc3[n+]2CCC)Sc2ccccc21.[I-]` [DiSC3(5), 3,3′-Dipropylthiadicarbocyanine Iodide], the “Percentage of cells stained” value is given as “Almost all” in the assay on Staphylococcus epidermis (setting [1]); “Almost all” in the assay on Staphylococcus epidermis (setting [2]); “Almost all” in the assay with Staphylococcus epidermis (setting [3]); “Almost all” in the assay on Staphylococcus epidermis (setting [4]); “Half” in the assay with Proteus; “Almost all” in the assay on Klebsiella oxytoca (setting [5]). For the same compound, the “Percentage of cells stained” value in the assay on Klebsiella oxytoca (setting [6]) is listed as “Almost all”; with Klebsiella oxytoca (setting [7]), “Half”. For the same compound, the Relative fluorescent intensity result was “Very high” in the assay on Staphylococcus epidermis (setting [1]); “Very high” in the assay with Staphylococcus epidermis (setting [2]); “Very high” with Staphylococcus epidermis (setting [3]); “Very high” in the assay with Staphylococcus epidermis (setting [4]); “Low-Medium” in the assay on Proteus; “Medium” in the assay with Klebsiella oxytoca (setting [5]). Also, the Relative fluorescent intensity entry with Klebsiella oxytoca (setting [6]) and in the assay with Klebsiella oxytoca (setting [7]) was “Low” each time.

Regarding `CCN(CC)c1ccc(C=CC=CC=Cc2cc[n+](CCC[N+](CC)(CC)CC)cc2)cc1.[Br-].[Br-]` [FM 4-64, N-(3-Triethylammoniumpropyl)-4-(6-(4-(Diethylamino) Phenyl) Hexatrienyl) Pyridinium Dibromide], the “Percentage of cells stained” value in the assay on Staphylococcus epidermis (setting [1]) is on record as “Almost all”; in the assay on Staphylococcus epidermis (setting [2]) it was “Almost all”; with Staphylococcus epidermis (setting [3]) it was “Almost all”; in the assay with Staphylococcus epidermis (setting [4]), “Almost all”; in the assay with Proteus it was “Few”; with Klebsiella oxytoca (setting [5]), “Few”. Moreover, the “Percentage of cells stained” value is reported as “Almost all” in the assay with Klebsiella oxytoca (setting [6]) and “Half” with Klebsiella oxytoca (setting [7]). The Relative fluorescent intensity entry in the assay on Staphylococcus epidermis (setting [1]) is recorded as “Medium”; with Staphylococcus epidermis (setting [2]), “Medium”; in the assay with Staphylococcus epidermis (setting [3]) it was “Medium”; in the assay on Staphylococcus epidermis (setting [4]), “Medium”; in the assay with Proteus it was “no staining or negligible”; in the assay with Proteus (listed as FM4-64), “Negligible”. Moreover, the Relative fluorescent intensity result in the assay on Klebsiella oxytoca (setting [5]), with Klebsiella oxytoca (setting [6]) and in the assay on Klebsiella oxytoca (setting [7]) was “Low” each time.

With `CCCN(CCCN(C)C)c1cc(/C=C2/Sc3ccccc3N2C)c2ccccc2[n+]1-c1ccccc1` [SYBR Green I, N′,N′-dimethyl-N-[4-[(E)-(3-methyl-1,3-benzothiazol-2-ylidene)methyl]-1-phenylquinolin-1-ium-2-yl]-N-propylpropane-1,3-diamine], the “Percentage of cells stained” value in the assay with Staphylococcus epidermis (setting [1]) was “Almost all”; in the assay with Staphylococcus epidermis (setting [2]), “Almost all”; in the assay with Staphylococcus epidermis (setting [3]) it was “Almost all”; with Staphylococcus epidermis (setting [4]) it was “Almost all”; with Proteus, “Half”; in the assay on Klebsiella oxytoca (setting [5]), “Almost all”. The “Percentage of cells stained” value is on record as “Almost all” in the assay on Klebsiella oxytoca (setting [6]) and “Half” with Klebsiella oxytoca (setting [7]). In addition, the Relative fluorescent intensity result with Staphylococcus epidermis (setting [1]) is recorded as “High”; in the assay with Staphylococcus epidermis (setting [2]) it was “High”; in the assay with Staphylococcus epidermis (setting [3]) it was “High”; with Staphylococcus epidermis (setting [4]), “High”; in the assay with Proteus it was “Low”; in the assay with Klebsiella oxytoca (setting [5]), “Low”. The Relative fluorescent intensity entry in the assay with Klebsiella oxytoca (setting [6]) and in the assay on Klebsiella oxytoca (setting [7]) was “Low” in each case.
